Experiments:
Type in all cases: in vivo
[1] = tested on: redroot pigweed (Amaranthus retroflexus, AMARE); experiment: Pre-emerge test, greenhouse herbicide activity screening; conditions: rating scale 0-100, 14 days after application
Outline: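 Plants grown in 10 cm pots of sandy loam mix received acetone-dissolved compounds through a moving flat-fan nozzle. Doses ranged from 15 to 1000 g ai/ha. Pre-emerge pots were seeded one day earlier, post-emerge pots 8–21 days earlier. Fourteen days on, each pot was graded 0–100 for damage.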

[2] = tested on: barnyardgrass (Echinochloa crus-galli, ECHCG); experiment: as above; conditions: rating scale 0-100, 14 days after application
Outline: (§1)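 Applied at 15–1000 g ai/ha from acetone in 187 l/ha spray volume. Post-emergence applications included 0.25% v/v non-ionic surfactant and reached plants sown 8–21 days before. Pre-emergence applications were incorporated by surface watering. Efficacy or crop damage was rated on a 0–100 scale after 14 days.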

[3] = tested on: green foxtail (Setaria viridis, SETVI); experiment: as above; conditions: rating scale 0-100, 14 days after application
Outline: as §1

[4] = tested on: ivyleaf morningglory (Ipomoea hederacea, IPOHE); experiment: as above; conditions: rating scale 0-100, 14 days after application
Outline: as §1

[5] = tested on: johnsongrass (Sorghum halepense, SORHA); experiment: as above; conditions: rating scale 0-100, 14 days after application
Outline: as §1

[6] = tested on: lambsquarters (Chenopodium album, CHEAL); experiment: as above; conditions: rating scale 0-100, 14 days after application
Outline: as §1

[7] = tested on: large crabgrass (Digitaria sanguinalis, DIGSA); experiment: as above; conditions: rating scale 0-100, 14 days after application
Outline: as §1

[8] = tested on: sicklepod (Cassia obtusifolia, CASOB); experiment: as above; conditions: rating scale 0-100, 14 days after application
Outline: as §1

[9] = tested on: velvetleaf (Abutilon theophrasti, ABUTH); experiment: as above; conditions: rating scale 0-100, 14 days after application
Outline: as §1

[10] = tested on: field corn (Zea mays L., var. Dekalb 535, CORN); experiment: Pre-emerge test, crop safety; conditions: 63 g ai/ha; rating scale 0-100, 14 days after application
Outline: (§2)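 Sandy loam pots; pre-emerge: sown 1 d pre-spray, surface-watered after, then bottom-watered. Post-emerge: sown 8–21 d before, 2–3 leaf stage, + 0.25% v/v NIS, bottom-watered. Acetone, 187 l/ha track spray, 15–1000 g ai/ha. 0–100 injury score, day 14.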

[11] = tested on: upland rice (Oryza sp., var. Tebonnet, RICE); experiment: Pre-emerge test, crop safety; conditions: rating scale 0-100, 14 days after application
Outline: as §2

[12] = tested on: barnyardgrass (Echinochloa crus-galli, ECHCG); experiment: Post-emerge test, greenhouse herbicide activity screening; conditions: rating scale 0-100 (0 no damage, 100 complete death), 14 days after application
Outline: (§3)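 Compounds in acetone were track-sprayed at 187 l/ha, 15–1000 g ai/ha, onto sandy loam pots. Pre-emerge seeds were sown one day before spraying, with surface watering afterwards. Post-emerge plants were at the 2–3 leaf stage and sprayed with 0.25% v/v non-ionic surfactant. Injury was rated 0–100 at 14 days.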

[13] = tested on: common ragweed (Ambrosia artemisizfolia L., AMBEL); experiment: as above; conditions: rating scale 0-100 (0 no damage, 100 complete death), 14 days after application
Outline: as §3

[14] = tested on: green foxtail (Setaria viridis, SETVI); experiment: as above; conditions: rating scale 0-100 (0 no damage, 100 complete death), 14 days after application
Outline: as §3

[15] = tested on: ivyleaf morningglory (Ipomoea hederacea, IPOHE); experiment: as above; conditions: rating scale 0-100 (0 no damage, 100 complete death), 14 days after application
Outline: as §3

[16] = tested on: johnsongrass (Sorghum halepense, SORHA); experiment: as above; conditions: rating scale 0-100 (0 no damage, 100 complete death), 14 days after application
Outline: as §3

[17] = tested on: lambsquarters (Chenopodium album, CHEAL); experiment: as above; conditions: rating scale 0-100 (0 no damage, 100 complete death), 14 days after application
Outline: as §3

[18] = tested on: large crabgrass (Digitaria sanguinalis, DIGSA); experiment: as above; conditions: rating scale 0-100 (0 no damage, 100 complete death), 14 days after application
Outline: as §3

[19] = tested on: redroot pigweed (Amaranthus retroflexus, AMARE); experiment: as above; conditions: rating scale 0-100 (0 no damage, 100 complete death), 14 days after application
Outline: as §3

[20] = tested on: sicklepod (Cassia obtusifolia, CASOB); experiment: as above; conditions: rating scale 0-100 (0 no damage, 100 complete death), 14 days after application
Outline: as §3

[21] = tested on: velvetleaf (Abutilon theophrasti, ABUTH); experiment: as above; conditions: rating scale 0-100 (0 no damage, 100 complete death), 14 days after application
Outline: as §3

[22] = tested on: field corn (Zea mays L., var. Dekalb 535, CORN); experiment: Post-emerge test, crop safety; conditions: rating scale 0-100 (0 no damage, 100 complete death), 14 days after application
Outline: as §1

[23] = tested on: upland rice (Oryza sp., var. Tebonnet, RICE); experiment: Post-emerge test, crop safety; conditions: rating scale 0-100 (0 no damage, 100 complete death), 14 days after application
Outline: as §1

COCCOC(=O)C(Cl)Cc1c(OC)c(Cl)cc(F)c1-n1c(=O)cc(C(F)(F)F)n(C)c1=O (stereo not drawn) [14-25]
Pre-emerge herbicidal activity, phytotoxicity rating AMARE ([1]; 63 g ai/ha): 100 | Pre-emerge herbicidal activity, phytotoxicity rating AMARE ([1]; 250 g ai/ha): 100 | Pre-emerge herbicidal activity, phytotoxicity rating ECHCG ([2]; 63 g ai/ha): 80 | Pre-emerge herbicidal activity, phytotoxicity rating ECHCG ([2]; 250 g ai/ha): 100 | Pre-emerge herbicidal activity, phytotoxicity rating SETVI ([3]; 63 g ai/ha): 90 | Pre-emerge herbicidal activity, phytotoxicity rating SETVI ([3]; 250 g ai/ha): 100 | Pre-emerge herbicidal activity, phytotoxicity rating IPOHE ([4]; 63 g ai/ha): 70 | Pre-emerge herbicidal activity, phytotoxicity rating IPOHE ([4]; 250 g ai/ha): 100 | Pre-emerge herbicidal activity, phytotoxicity rating SORHA ([5]; 63 g ai/ha): 80 | Pre-emerge herbicidal activity, phytotoxicity rating SORHA ([5]; 250 g ai/ha): 100 | Pre-emerge herbicidal activity, phytotoxicity rating CHEAL ([6]; 63 g ai/ha): 100 | Pre-emerge herbicidal activity, phytotoxicity rating CHEAL ([6]; 250 g ai/ha): 100 | Pre-emerge herbicidal activity, phytotoxicity rating DIGSA ([7]; 63 g ai/ha): 70 | Pre-emerge herbicidal activity, phytotoxicity rating DIGSA ([7]; 250 g ai/ha): 100 | Pre-emerge herbicidal activity, phytotoxicity rating CASOB ([8]; 63 g ai/ha): 50 | Pre-emerge herbicidal activity, phytotoxicity rating CASOB ([8]; 250 g ai/ha): 100 | Pre-emerge herbicidal activity, phytotoxicity rating ABUTH ([9]; 63 g ai/ha): 100 | Pre-emerge herbicidal activity, phytotoxicity rating ABUTH ([9]; 250 g ai/ha): 100 | Pre-emerge phytotoxicity rating, crop damage CORN [10]: 95 | Pre-emerge phytotoxicity rating, crop damage RICE ([11]; 63 g ai/ha): 90 | Pre-emerge phytotoxicity rating, crop damage RICE ([11]; 250 g ai/ha): 100 | Post-emerge Herbicidal Activity, phytotoxicity rating ECHCG ([12]; Rate 63 g ai/ha): 100 | Post-emerge Herbicidal Activity, phytotoxicity rating ECHCG ([12]; Rate 250 g ai/ha): 100 | Post-emerge Herbicidal Activity, phytotoxicity rating AMBEL ([13]; Rate 63 g ai/ha): 100 | Post-emerge Herbicidal Activity, phytotoxicity rating AMBEL ([13]; Rate 250 g ai/ha): 100 | Post-emerge Herbicidal Activity, phytotoxicity rating SETVI ([14]; Rate 63 g ai/ha): 50 | Post-emerge Herbicidal Activity, phytotoxicity rating SETVI ([14]; Rate 250 g ai/ha): 80 | Post-emerge Herbicidal Activity, phytotoxicity rating IPOHE ([15]; Rate 63 g ai/ha): 70 | Post-emerge Herbicidal Activity, phytotoxicity rating IPOHE ([15]; Rate 250 g ai/ha): 100 | Post-emerge Herbicidal Activity, phytotoxicity rating SORHA ([16]; Rate 63 g ai/ha): 40 | Post-emerge Herbicidal Activity, phytotoxicity rating SORHA ([16]; Rate 250 g ai/ha): 95 | Post-emerge Herbicidal Activity, phytotoxicity rating CHEAL ([17]; Rate 63 g ai/ha): 80 | Post-emerge Herbicidal Activity, phytotoxicity rating CHEAL ([17]; Rate 250 g ai/ha): 100 | Post-emerge Herbicidal Activity, phytotoxicity rating DIGSA ([18]; Rate 63 g ai/ha): 95 | Post-emerge Herbicidal Activity, phytotoxicity rating DIGSA ([18]; Rate 250 g ai/ha): 100 | Post-emerge Herbicidal Activity, phytotoxicity rating AMARE ([19]; Rate 63 g ai/ha): 95 | Post-emerge Herbicidal Activity, phytotoxicity rating AMARE ([19]; Rate 250 g ai/ha): 100 | Post-emerge Herbicidal Activity, phytotoxicity rating CASOB ([20]; Rate 63 g ai/ha): 50 | Post-emerge Herbicidal Activity, phytotoxicity rating CASOB ([20]; Rate 250 g ai/ha): 80 | Post-emerge Herbicidal Activity, phytotoxicity rating ABUTH ([21]; Rate 63 g ai/ha): 100 | Post-emerge Herbicidal Activity, phytotoxicity rating ABUTH ([21]; Rate 250 g ai/ha): 100 | Post-emerge phytotoxicity rating CORN (crop damage) ([22]; Rate 63 g ai/ha): 100 | Post-emerge phytotoxicity rating CORN (crop damage) ([22]; Rate 250 g ai/ha): 100 | Post-emerge phytotoxicity rating RICE (crop damage) ([23]; Rate 63 g ai/ha): 10 | Post-emerge phytotoxicity rating RICE (crop damage) ([23]; Rate 250 g ai/ha): 50

Reference: patent US6355799B1, “Substituted benzene compounds, process for their preparation, and herbicidal and defoliant compositions containing them” (ISK Americas Incorporated, priority 1997, dated 2002)
